Test results reported in patent publication EP3056202A1, “BENZOPYRROLIDONE DERIVATIVES POSSESSING ANTIVIRAL AND ANTICANCER PROPERTIES” (Max-Planck-Gesellschaft zur Förderung der Wissenschaften …, priority 2015, dated 2016).
≈ marks a conversion by molar mass, not a printed value.

What was measured:
[1] = test system: HCT-116 human colon carcinoma cell line; test: In vitro growth inhibition of colon carcinoma cells, HCT-116 (CellTiter-Glo); assay type: cell-based; details: 72 hours incubation, read-out: HCT116 EC50
[2] = test system: HKE3 human colon carcinoma cell line; test: In vitro growth inhibition of colon carcinoma cells, HKE3 (CellTiter-Glo); assay type: cell-based; details: 72 hours incubation
human Akt1 kinase = human Akt1 kinase (Homo sapiens, UniProt P31749); test: In vitro Akt1 assay (IMAP fluorescence polarization, phosphorylation of TAMRA-peptide); assay type: biochemical; details: 40 µM ATP
Description: The inhibition of Akt1 by the compounds described in the present invention were determined measuring the phosphorylation of a fluorescently-labeled peptide (TAMRA-peptide) by human Akt1 kinase by fluorescent polarization using a commercially available IMAP Screening Express Assay Kit (Molecular Devices).
Akt1 kinase assays were performed in low protein binding 384-well plates (Corning). Test compounds were diluted in 100% DMSO to 5 mM stock concentration and then further dilutions were made in H2O or 100% DMSO to desirable concentrations.
Each reaction consisted of 5 nM enzyme: Akt1 kinase, 400 nM TAMRA-peptide (5-TAMRA-GRTGRRNSI-COOH; Genecust), 40 µM ATP and kinase buffer: 20 mM MES pH6, 1 mM DTT, 10 mM MgCl2, 2 mM MnCl2, 0.01 V/V% TritonX (all reagents from Sigma-Aldrich).
(§1) For each reaction, 4 or 6 µl containing TAMRA-peptide, ATP and kinase buffer were combined with 2 µl diluted compound in H2O or 0.02 µl compound in 100% DMSO. The kinase reaction was started by the addition of 2 µl diluted enzyme. The reaction was allowed to run for 1 hour at room temperature. The reaction was stopped by adding 15 µl IMAP beads (1:400 beads in progressive (75% buffer A, 25% buffer B) 1x buffer). After an additional hour, fluorescent polarization (Ex: 550-10 nm, Em: 590-10 nm, Dich: 561 nm) was measured using an Analyst GT (Molecular Devices).

physchem = assay type: physicochemical; details: kinetic from dmso stock
Description: Samples were diluted in DMSO (control), phosphate buffer pH = 7.4 and pH = 2.0, from 5mM stock solutions (solved in DMSO), with a 120 µM final concentration. The samples were incubated for 24 hours at room temperature followed by 30 minutes centrifugation at 3700 rpm. 40 µl of the supernatants were injected into HPLC (Waters 2795 Alliance HPLC equipped with Waters 996 PDA Detector (HPLC column: Waters XBridge, RP C18, 3.5 µm, 4.6 mm x 50 mm; gradient MeCN/H2O, containing 0.1% HCOOH: 5% MeCN (0.5 min), 5% to 95% MeCN (5 min), 95% MeCN (0.5 min); flow rate: 2.0 ml/min)) and the AUC values (measured on sample specific wavelength) of the buffered samples were divided by the AUC values (same wavelength as buffered samples') of the DMSO control samples. Table 3: Solubility in water for several compounds according to general formula (I)

[3] = test system: A549 human lung carcinoma cells; test: Cell-based EC50 determination, A549 cells (CellTiter-Glo cell viability); details: A549, 24 h, read-out: A549 EC50 24h
Description: A549 human lung carcinoma cells were cultured in RPMI 1640 medium (Sigma) supplemented with 10% fetal bovine serum (Sigma) and Antibiotic-Antimycotic (Sigma) in tissue culture flasks at 37°C in a humidified 5% CO2 atmosphere. Cells were routinely assayed for mycoplasma contamination.
Two thousand cells were plated in 384-well tissue culture plates, and treated after 24 hours with a 10-point dilution series of the compounds (1.5 nM-30 uM), using the vehicle, DMSO as control. Cells were incubated for 24 hours after which the relative cell density was determined by CellTiter-Glo Luminescent Cell Viability Assay (Promega). This method determines the number of metabolically active cells in the culture based on quantitation of the ATP present. The luminescent signal was measured with an Analyst GT multimode reader (Molecular Devices). […]

human Ack1 kinase = human Ack1 kinase (Homo sapiens, UniProt Q07912); test: In vitro Ack1 assay (TranScreener ADP2 FP, generation of ADP); assay type: biochemical; details: 12.5 uM compound; 3.5 µM ATP; read-out: Ack1 inh% @12.5 uM
Description: The activity of the compounds described in the present invention can be determined by the following kinase assay, which measures the generation of ADP by human Ack1 kinase by fluorescent polarization using a commercially available TranScreener ADP2 FP Assay Kit (BellBrook Labs).
Ack1 kinase assays were performed in low protein binding 384-well plates (Corning). Test compounds were diluted in 100% DMSO to 5 mM stock concentration and then further dilutions were made in H2O or 100% DMSO to desirable concentrations.
Each reaction consisted of 5 nM enzyme: Ack1 kinase, Poly Glu-Tyr (4:1) (Sigma), 3.5 µM ATP and kinase buffer: 20 mM HEPES pH7.5, 1 mM DTT, 2 mM MgCl2, 0.4 mM MnCl2, 0.01 V/V% Tween20 (all reagents from Sigma-Aldrich)
For each reaction, 4 or 6 µl containing Poly Glu-Tyr (4:1), ATP and kinase buffer were combined with 2 µl diluted compound in H2O or 0.02 µl compound in 100% DMSO. The kinase reaction was started by the addition of 2 µl diluted enzyme. The reaction was allowed to run for 1 hour at room temperature. The reaction was stopped by addition of 8 µl ADP detection mixture (1 x) (1 x Detection buffer + 4.78 µg/ml ADP2 Ab + 4 nM ADP Alexa633 Tracer). After an additional hour, fluorescent polarization (Ex: 630-35 nm, Em: 680-30 nm, Dich: 650 nm) was measured using an Analyst GT (Molecular Devices).

[4] = test system: HepG2 hepatoblastomaderived cell line; test: In vitro growth inhibition, HepG2 (CellTiter-Glo); assay type: cell-based; details: Homo sapiens, 72 hours incubation
[5] = test system: H1 N1 influenza virus strain A/WSN/33; test: microbe, parasite or virus in culture; assay type: cell-based; details: 36 h, read-out: Influenza replication IC50
human Clk1 kinase = target: T1, human Clk1 kinase (Homo sapiens, UniProt P49759); test: In vitro Clk1 assay (IMAP fluorescence polarization); assay type: biochemical; details: 0.45 µM ATP
T1 construct: Each reaction consisted of 4 nM enzyme: Clk1 kinase domain
Description: The activity of the compounds described in the present invention can be determined by the following kinase assay, which measures the phosphorylation of a fluorescently-labeled peptide by human Clk1 kinase by fluorescent polarization using a commercially available IMAP Screening Express Assay Kit (Molecular Devices).
Clk1 kinase assays were performed in low protein binding 384-well plates (Corning). Test compounds were diluted in 100% DMSO to 5 mM stock concentration and then further dilutions were made in H2O or 100% DMSO to desirable concentrations.
Each reaction consisted of 4 nM enzyme: Clk1 kinase domain, 400 nM TAMRA-AFRREWSPGKEAKK-NH2 (Genecust), 0.45 µM ATP (Sigma) and kinase buffer: 20 mM TRIS pH 8, 1 mM DTT, 0.4 mM MgCl2, 0.4 mM MnCl2, 0.01 V/V% Tween20 (all reagents from Sigma-Aldrich)
as §1, with “(1:600” for “(1:400”, “(80 %” for “(75%”, “20%” for “25%”

T1 sequence (P49759 161-477 limits assumed): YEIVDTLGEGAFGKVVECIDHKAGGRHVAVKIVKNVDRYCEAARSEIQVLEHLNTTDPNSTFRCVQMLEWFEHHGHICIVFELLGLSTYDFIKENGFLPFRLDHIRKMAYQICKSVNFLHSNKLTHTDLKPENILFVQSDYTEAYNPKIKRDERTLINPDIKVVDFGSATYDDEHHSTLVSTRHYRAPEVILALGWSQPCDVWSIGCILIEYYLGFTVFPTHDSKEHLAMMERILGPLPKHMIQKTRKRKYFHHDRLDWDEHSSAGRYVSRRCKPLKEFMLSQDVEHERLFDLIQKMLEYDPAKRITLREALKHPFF
human Akt1 kinase, sequence (P31749 whole entry): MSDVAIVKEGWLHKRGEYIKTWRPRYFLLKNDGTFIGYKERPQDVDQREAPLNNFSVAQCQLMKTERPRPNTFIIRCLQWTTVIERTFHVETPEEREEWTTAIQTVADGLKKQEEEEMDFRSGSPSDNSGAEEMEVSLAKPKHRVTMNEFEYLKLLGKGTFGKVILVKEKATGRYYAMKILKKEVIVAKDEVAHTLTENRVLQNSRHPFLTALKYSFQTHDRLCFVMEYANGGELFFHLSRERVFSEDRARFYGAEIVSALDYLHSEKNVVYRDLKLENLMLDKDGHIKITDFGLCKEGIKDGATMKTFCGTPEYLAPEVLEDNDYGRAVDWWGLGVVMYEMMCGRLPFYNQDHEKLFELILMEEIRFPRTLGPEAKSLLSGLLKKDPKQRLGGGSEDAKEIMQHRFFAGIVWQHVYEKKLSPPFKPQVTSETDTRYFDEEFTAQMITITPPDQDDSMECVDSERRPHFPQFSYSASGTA
human Ack1 kinase, sequence (Q07912 whole entry): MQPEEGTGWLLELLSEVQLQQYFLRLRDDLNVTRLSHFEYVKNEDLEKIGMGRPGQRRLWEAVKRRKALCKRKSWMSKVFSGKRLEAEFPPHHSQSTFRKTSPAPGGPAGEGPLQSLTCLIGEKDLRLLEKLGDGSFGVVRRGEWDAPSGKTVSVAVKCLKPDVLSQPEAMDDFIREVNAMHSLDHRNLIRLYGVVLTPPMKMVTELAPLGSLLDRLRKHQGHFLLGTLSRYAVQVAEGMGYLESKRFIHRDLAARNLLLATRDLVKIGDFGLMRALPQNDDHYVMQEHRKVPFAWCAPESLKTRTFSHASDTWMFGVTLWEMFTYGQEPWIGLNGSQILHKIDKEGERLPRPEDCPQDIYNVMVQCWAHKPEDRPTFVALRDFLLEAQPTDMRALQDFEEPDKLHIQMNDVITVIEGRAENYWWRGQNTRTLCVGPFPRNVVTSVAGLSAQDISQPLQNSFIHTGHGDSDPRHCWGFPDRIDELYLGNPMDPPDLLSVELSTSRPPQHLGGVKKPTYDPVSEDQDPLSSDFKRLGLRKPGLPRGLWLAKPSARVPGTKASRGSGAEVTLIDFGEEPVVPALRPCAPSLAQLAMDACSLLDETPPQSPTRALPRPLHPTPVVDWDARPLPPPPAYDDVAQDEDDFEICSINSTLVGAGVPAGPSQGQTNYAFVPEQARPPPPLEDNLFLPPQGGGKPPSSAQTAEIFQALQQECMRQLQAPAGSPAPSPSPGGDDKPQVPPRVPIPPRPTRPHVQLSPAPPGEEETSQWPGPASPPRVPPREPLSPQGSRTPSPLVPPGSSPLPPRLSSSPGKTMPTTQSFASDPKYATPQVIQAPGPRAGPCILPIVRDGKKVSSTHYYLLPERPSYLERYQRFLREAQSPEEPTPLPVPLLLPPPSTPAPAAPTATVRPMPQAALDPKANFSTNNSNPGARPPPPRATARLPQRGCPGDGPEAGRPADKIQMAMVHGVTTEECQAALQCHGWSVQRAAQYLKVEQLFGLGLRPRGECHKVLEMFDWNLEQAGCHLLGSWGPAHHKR

Compound | EC50 [1] | EC50 [2] | inhibition at 12.5 µM (human Akt1 kinase; 12.5 uM compound, read-out: Akt1 inh% @12.5 uM) | IC50 (human Akt1 kinase) | solubility at 24 h (physchem; pH 2, aqueous buffer) | solubility at 24 h (physchem; pH 7.4, aqueous buffer) | EC50 [3] | inhibition at 12.5 µM (human Ack1 kinase) | EC50 [4] | IC50 [5] | IC50 (human Clk1 kinase)
CC[C@@H](NC(=O)c1ccc2c(c1)/C(=C(/Nc1cccc(CN3CCCCC3)c1)c1ccccc1)C(=O)N2)c1ccccc1 [Compound 12, (3Z)-2-oxo-3-(phenyl{[3-(piperidin-1-ylmethyl)phenyl]amino}methylene)-N-[(1R)-1-phenylpropyl]indoline-5-carboxamide] | 30 nM | 20 nM | 75.1% | 7980 nM | 110 to 120 µM (≈ 62.8 to 68.5 µg/mL) | < 10 µM | 6890 nM | 18.1% | 3520 nM | 10 nM | 210 nM
CC[C@H](NC(=O)c1ccc2c(c1)/C(=C(/Nc1ccc(CN3CCCCC3)cc1)c1ccccc1)C(=O)N2)c1ccccc1 [Compound 32, (3Z)-2-oxo-3-(phenyl{[4-(piperidin-1-ylmethyl)phenyl]amino}methylene)-N-[(1S)-1-phenylpropyl]indoline-5-carboxamide] |  |  |  | > 12500 nM | 110 to 120 µM (≈ 62.8 to 68.5 µg/mL) | < 10 µM | 6380 nM |  |  | 10100 nM | 100 nM
COc1cccc([C@@H](C)NC(=O)c2ccc3c(c2)/C(=C(/Nc2ccc(CN4CCN(C)CC4)cc2)c2ccccc2)C(=O)N3)c1 [Compound 35, (3Z)-N-[(1R)-1-(3-methoxyphenyl)ethyl]-3-[({4-[(4-methylpiperazin-1-yl)methyl]phenyl}amino)(phenyl)methylene]-2-oxoindoline-5-carboxamide] | 30 nM | 20 nM |  | 2510 nM | 110 to 120 µM (≈ 66.2 to 72.2 µg/mL) | 10 to 20 µM (≈ 6.02 to 12 µg/mL) | 4990 nM |  | 2120 nM | 20 nM | 10 nM
C[C@@H](NC(=O)c1ccc2c(c1)/C(=C(/Nc1ccc(CN3CCN(C)CC3)cc1)c1ccccc1)C(=O)N2)c1cccc(Cl)c1 [Compound 36, (3Z)-N-[(1R)-1-(3-chlorophenyl)ethyl]-3-[({4-[(4-methylpiperazin-1-yl)methyl]phenyl}amino)(phenyl)methylene]-2-oxoindoline-5-carboxamide] | 20 nM | 20 nM |  | 330 nM | 100 to 110 µM (≈ 60.6 to 66.7 µg/mL) | < 10 µM | 1770 nM |  | 640 nM | < 10 nM | 20 nM
CC[C@@H](NC(=O)c1ccc2c(c1)/C(=C(/Nc1ccc(CN3CCN(C)CC3)cc1)c1ccccc1)C(=O)N2)c1ccccc1 [Compound 37, (3Z)-3-[({4-[(4-methylpiperazin-1-yl)methyl]phenyl}amino)(phenyl)methylene]-2-oxo-N-[(1R)-1-phenylpropyl]indoline-5-carboxamide] | 1 nM | < 1.52 nM |  | 2050 nM | 110 to 120 µM (≈ 64.4 to 70.3 µg/mL) | < 10 µM | 2010 nM |  | 360 nM | < 10 nM | 10 nM
C[C@@H](NC(=O)c1ccc2c(c1)/C(=C(/Nc1ccc(CN3CCN(C)CC3)cc1)c1ccccc1)C(=O)N2)c1ccccc1 [Compound 38, (3Z)-3-[({4-[(4-methylpiperazin-1-yl)methyl]phenyl}amino)(phenyl)methylene]-2-oxo-N-[(1R)-1-phenylethyl]indoline-5-carboxamide] | 10 nM | 10 nM |  | 1830 nM | 110 to 120 µM (≈ 62.9 to 68.6 µg/mL) | 10 to 20 µM (≈ 5.72 to 11.4 µg/mL) | 3670 nM |  | 1120 nM | < 10 nM | 10 nM
COc1ccc(CNC(=O)c2ccc3c(c2)/C(=C(/Nc2ccc(CN4CCN(C)CC4)cc2)c2ccccc2)C(=O)N3)cc1OC [Compound 39, (3Z)-N-(3,4-dimethoxybenzyl)-3-[({4-[(4-methylpiperazin-1-yl)methyl]phenyl}amino)(phenyl)methylene]-2-oxoindoline-5-carboxamide] | 3800 nM | 2960 nM |  | 12300 nM | 110 to 120 µM (≈ 68 to 74.1 µg/mL) | < 10 µM | 18800 nM |  | 24200 nM | 100 nM | 10 nM
COc1cccc(CNC(=O)c2ccc3c(c2)/C(=C(/Nc2ccc(CN4CCN(C)CC4)cc2)c2ccccc2)C(=O)N3)c1 [Compound 40, (3Z)-N-(3-methoxybenzyl)-3-[({4-[(4-methylpiperazin-1-yl)methyl]phenyl}amino)(phenyl)methylene]-2-oxoindoline-5-carboxamide] | 110 nM | 80 nM |  | 3400 nM | 110 to 120 µM (≈ 64.6 to 70.5 µg/mL) | < 10 µM | 14600 nM |  | 10000 nM | < 10 nM | 10 nM
